Data published in paper PMC7829778, “Optimization of 1,4-Naphthoquinone Hit Compound: A Computational, Phenotypic, and In Vivo Screening against Trypanosoma cruzi” (Molecules, 2021).
Where two headings read alike, the source gives them in different places.

How the values were obtained:
[1] = test system: T. cruzi trypomastigotes Dm28c-Luc; test: Trypanocidal activity against trypomastigotes, Dm28c-Luc clone (luciferase); type: cell-based, Trypanosoma cruzi; conditions: Trypanosoma cruzi, 24 h, mean ± SD of three experiments; for IC50: read-out: Trypanocidal Effect Trypomastigotes Dm28c-Luc IC50; for IC90: read-out: Trypanocidal Effect Trypomastigotes Dm28c-Luc IC90
Procedure: (§1) T. cruzi Dm28c-Luc clone, genetically modified to express firefly luciferase, and Y strain were used in the drug screening assay. Vero cells were infected with T. cruzi, Dm28c-Luc or Y strain, in a 10:1 parasites/host cell ratio and maintained at 37 °C in humidified atmosphere of 5% CO2. Trypomastigotes were harvested from the infected culture supernatant on the 4th day post-infection (dpi) followed by quantification of the number of parasites/mL in Neubauer chamber.
(§2) Screening of the compounds was performed against trypomastigotes and intracellular amastigote forms. Trypomastigotes (1 × 10^6 parasites/well), Dm28c-Luc clone and Y strain, were incubated for 24 h at 37 °C with the 1,4 naphthoquinone derivatives and Bz (0.41–100 μM) and their viability determined by the activity of the luciferase enzyme, after addition of luciferin substrate (300 μg/mL), or CellTiter Glo. The luminescent signal was detected on the FlexStation 3 reader.

[2] = test system: intracellular amastigotes of T. cruzi (Dm28c-Luc clone); test: Luminescent screening against intracellular amastigotes in infected Vero cells; type: cell-based, Trypanosoma cruzi; conditions: infected Vero cells treated for 72 h, mean ± SD of three experiments
Procedure: as §1
The effect of the compounds against intracellular amastigotes was screened in 72 h T. cruzi-infected Vero cells. Briefly, Vero cells seeded (1.5 × 10^4 cells/well) on 96-well white plate infected with trypomastigotes (Dm28c-Luc) at a 10:1 multiplicity of parasites/cell. After 24 h of infection, the cultures were washed with PBS and then, treated for 72 h at 37 °C with naphthoquinone derivatives and Bz (0.41–100 µM). After treatment, luciferin (300 µg/mL) was added to the culture and the viability of the parasites was assessed by reading the luminescent signal using the FlexStation 3 reader. Controls were also performed in no-toxic concentrations of DMSO (≤1%).

[3] = Cytotoxicity in vitro assay (CellTiter Glo, ATP level); type: cell-based; conditions: African green monkey, Vero cells
Procedure: The cultures were maintained at 37 °C in humidified atmosphere of 5% CO2.
To evaluate the toxic effects of the 1,4-naphthoquinone derivatives on mammalian cells, Vero cells were seeded at a density of 1.5 × 10^4 cells/well in 96-well white culture plates. Twenty-four hours later, the cell cultures were incubated for 72 h at 37 °C with 1,4-naphthoquinone derivatives (series 1(a–i) and 2(a–j)) and Bz (500–1.9 µM) diluted in RPMI medium supplemented with 10% FBS. After incubation, the cell viability, measured by ATP level, was assessed by adding 20 µL/well of the CellTiter Glo (Promega Corporation, Madison, WI, EUA) solution. The luminescent signal was read on the FlexStation 3 reader (Molecular Devices, Sunnyvale, CA, USA). […] All treatments and controls were performed at low concentration (≤1%) of dimethyl sulfoxide (DMSO). At least three independent assays were performed in duplicate.

[4] = test system: T. cruzi trypomastigotes Y strain; test: Trypanocidal activity against trypomastigotes, Y strain (CellTiter Glo); type: cell-based; conditions: Trypanosoma cruzi, 24 h
Procedure: as §1, §2

[5] = Table 1, mean ± SD, read-out: Vero Cells Toxicity CC50
[6] = read-out: Trypanocidal Effect Trypomastigotes Y Strain IC50, trypomastigotes, 24 h, mean ± SD of three experiments
[7] = read-out: Trypanocidal Effect Trypomastigotes Y Strain IC90, trypomastigotes, 24 h, mean ± SD of three experiments
[8] = trypomastigotes, mean ± SD of three experiments, read-out: Trypanocidal Effect Trypomastigotes Y Strain IC50
[9] = trypomastigotes, mean ± SD of three experiments, read-out: Trypanocidal Effect Trypomastigotes Y Strain IC90

SMILES: COc1ccc(C(Sc2ccc(Cl)cc2)C2=C(O)C(=O)c3ccccc3C2=O)c(OC)c1OC (centres unmarked) [Compound 1i, 2-(((4-chlorophenyl)thio)(2,3,4-trimethoxyphenyl)methyl)-3-hydroxynaphthalene-1,4-dione]
- IC50 [1]: 21.5 ± 2.9 µM
- IC50 ([2]; Trypanosoma cruzi, Vero, 72 h): 15.9 ± 3.1 µM
- IC90 ([2]; Trypanosoma cruzi): 27.2 ± 3.4 µM
- CC50 at 72 h [3, 5]: 34.2 ± 3.4 µM
- CC50 at 72 h ([3]; Table 2, read-out: CC50 Vero): 24 to 34 µM
- IC50 [4, 6]: 30.1 ± 2.3 µM
- IC90 [4, 7]: 38.9 ± 4.3 µM

SMILES: COc1ccc(SC(C2=C(O)C(=O)c3ccccc3C2=O)c2ccc(OC)cc2)cc1 (centres unmarked) [Compound 2i, 2-Hydroxy-3-((4-methoxyphenyl)((4-methoxyphenyl)thio)methyl)naphthalene-1,4-dione]
- IC50 [1]: 24.1 ± 2.7 µM
- IC90 [1]: 44.9 ± 6.7 µM
- IC50 ([2]; Trypanosoma cruzi, Vero, 72 h): 15.8 ± 3.2 µM
- IC90 ([2]; Trypanosoma cruzi): 34.8 ± 5.3 µM
- CC50 at 72 h [3, 5]: 44.8 ± 3.3 µM
- CC50 at 72 h ([3]; Table 2, read-out: CC50 Vero): 44.8 ± 3.3 µM
- IC50 [4, 8]: 10.6 ± 0.4 µM
- IC90 [4, 9]: 31.6 ± 5.4 µM

SMILES: COc1ccc(C(Sc2ccccc2)C2=C(O)C(=O)c3ccccc3C2=O)cc1 (centres unmarked) [Compound 2a, 2-Hydroxy-3-((4-methoxyphenyl)(phenylthio)methyl)naphthalene-1,4-dione]
- IC50 [1]: 27.4 ± 2.9 µM
- IC90 [1]: 32.1 ± 1.6 µM
- IC50 ([2]; Trypanosoma cruzi, Vero, 72 h): ≤ 6.9 µM
- IC90 ([2]; Trypanosoma cruzi): 25.3 ± 1.9 µM
- IC50 [2]: 6.7 ± 1.6 µM
- CC50 at 72 h [3, 5]: 45.1 ± 1.9 µM
- CC50 at 72 h ([3]; Table 2, read-out: CC50 Vero): 45.1 ± 1.9 µM
- IC50 [4, 8]: 31.2 ± 4.3 µM
- IC90 [4, 9]: 38.9 ± 5.3 µM

SMILES: O=C1C(O)=C(C(Sc2ccc(Cl)cc2)c2ccccc2)C(=O)c2c(O)cccc21 (centres unmarked) [Compound 1f, 3-(((4-chlorophenyl)thio)(phenyl)methyl)-2,5-dihydroxynaphthalene-1,4-dione]
- IC50 [1]: 9.8 ± 0.7 µM
- IC90 [1]: 28.1 ± 1.7 µM
- IC50 ([2]; Trypanosoma cruzi, Vero, 72 h): 10.1 ± 1.4 µM
- IC90 ([2]; Trypanosoma cruzi): 29.1 ± 2.1 µM
- CC50 at 72 h [3, 5]: 41.1 ± 2.1 µM
- CC50 at 72 h ([3]; Table 2, read-out: CC50 Vero): 41.1 ± 2.1 µM

SMILES: COc1ccc(C(Sc2ccc([N+](=O)[O-])cc2)C2=C(O)C(=O)c3ccccc3C2=O)cc1 (centres unmarked) [Compound 2f, 2-Hydroxy-3-((4-methoxyphenyl)((4-nitrophenyl)thio)methyl)naphthalene-1,4-dione]
- IC50 [1]: 6.5 ± 3.1 µM
- IC90 [1]: 11.5 ± 3.1 µM
- IC50 ([2]; Trypanosoma cruzi, Vero, 72 h): ≤ 6.9 µM
- IC90 ([2]; Trypanosoma cruzi): 76.6 ± 4.9 µM
- IC50 [2]: 5.7 ± 1.4 µM
- CC50 at 72 h [3, 5]: 40.6 ± 2.9 µM
- CC50 at 72 h ([3]; Table 2, read-out: CC50 Vero): 40.6 ± 2.9 µM
- IC50 [4, 8]: 12.5 ± 1.6 µM
- IC90 [4, 9]: 19.9 ± 3.6 µM

SMILES: CCCSC(C1=C(O)C(=O)c2ccccc2C1=O)c1ccc(OC)cc1 (centres unmarked) [Compound 2g, 2-Hydroxy-3-((4-methoxyphenyl)(propylthio)methyl)naphthalene-1,4-dione]
- IC50 [1]: 13.7 ± 4.1 µM
- IC90 [1]: 28.7 ± 5.1 µM
- IC50 ([2]; Trypanosoma cruzi, Vero, 72 h): 10.3 ± 2.4 µM
- IC90 ([2]; Trypanosoma cruzi): 37.7 ± 4.1 µM
- CC50 at 72 h [3, 5]: 47.7 ± 5.2 µM
- CC50 at 72 h ([3]; Table 2, read-out: CC50 Vero): 47.7 ± 5.2 µM
- IC50 [4, 8]: 12.7 ± 3.9 µM
- IC90 [4, 9]: 23.7 ± 4.1 µM

SMILES: O=C1C(O)=C(C(Sc2ccc(Cl)cc2)c2cccc(Cl)c2)C(=O)c2ccccc21 (centres unmarked) [Compound 1b, 2-((3-chlorophenyl)((4-chlorophenyl)thio)methyl)-3-hydroxynaphthalene-1,4-dione]
- IC50 [1]: 9.8 ± 0.5 µM
- IC90 [1]: 30.8 ± 2.9 µM
- IC50 ([2]; Trypanosoma cruzi, Vero, 72 h): ≤ 6.9 µM
- IC90 ([2]; Trypanosoma cruzi): 12.7 ± 1.8 µM
- IC50 [2]: 6.9 ± 1.5 µM
- CC50 at 72 h [3, 5]: 42.1 ± 1.9 µM
- CC50 at 72 h ([3]; Table 2, read-out: CC50 Vero): 42.1 ± 1.9 µM
- IC50 [4, 8]: 3.6 ± 1.6 µM
- IC90 [4, 9]: 8.1 ± 1.3 µM

SMILES: COc1ccc(C(Sc2ccc(C)cc2)C2=C(O)C(=O)c3ccccc3C2=O)cc1 (centres unmarked) [Compound 2d, 2-Hydroxy-3-((4-methoxyphenyl)(p-tolylthio)methyl) naphthalene-1,4-dione]
- IC50 [1]: 24.3 ± 3.4 µM
- IC90 [1]: 82.2 ± 7.7 µM
- IC50 ([2]; Trypanosoma cruzi, Vero, 72 h): 11.9 ± 1.7 µM
- IC90 ([2]; Trypanosoma cruzi): 28.8 ± 4.6 µM
- CC50 at 72 h [3, 5]: 142 ± 17.6 µM
- CC50 at 72 h ([3]; Table 2, read-out: CC50 Vero): 142 ± 17.6 µM
- IC50 [4, 8]: 31.1 ± 1.8 µM
- IC90 [4, 9]: 49.7 ± 7.1 µM

SMILES: COc1ccc(C(Sc2ccc(Cl)cc2)C2=C(O)C(=O)c3ccccc3C2=O)c(OC)c1 (centres unmarked) [Compound 1h, 2-(((4-chlorophenyl)thio)(2,4-dimethoxyphenyl)methyl)-3-hydroxynaphthalene-1,4-dione]
- IC50 [1]: 15.4 ± 4.6 µM
- IC50 ([2]; Trypanosoma cruzi, Vero, 72 h): 12.1 ± 3.9 µM
- IC90 ([2]; Trypanosoma cruzi): 19.4 ± 3.6 µM
- CC50 at 72 h [3, 5]: 24.4 ± 2.6 µM
- CC50 at 72 h ([3]; Table 2, read-out: CC50 Vero): 24 to 34 µM
- IC50 [4, 6]: 22.9 ± 7.1 µM
- IC90 [4, 7]: 31.9 ± 6.1 µM
